According to patent US12564609B2, “Hematopoietic stem cell engraftment with a combination of agents” (The Board of Trustees of the Leland Stanford Junior …, priority 2020, dated 2026):

Tested on: mouse Lin−Sca1+c-Kit+CD48− cells
Test: In vitro HSC culture, cell counting and live/dead viability assay (mouse)
Format: cell-based
Protocol: A. Schematic of treatment protocol. C57BL/6 mice were injected with three different doses of AZA (1.25, 2.5 and 5 mg/kg/d) for 3 days. 24 h after last AZA injection BM was analyzed for HSC-depletion and Ki67 intracellular protein expression. B. Overlay histogram of Ki67 intracellular protein expression in LT-HSC (gated from live, Lin^−Sca1^+c-Kit^+CD150^+CD48^− cells) in mice treated with AZA 1.25 mg/kg, 2.5 mg/kg and 5 mg/kg/d for 3 consecutive days. C. Mean fluorescence intensity (MFI) of Ki67 intracellular protein expression in LT-HSC, ST-HSC, MPP2, MPP3/4 and myeloid progenitors (MP). Data were pooled from 2 independent experiments and represent mean±SD (n=7). Statistics were calculated Mann-Whitney test (*P<0.05; **P<0.01; ***P<0.001). […] After 48 h % live/dead cells was assessed by using EarlyTox Live/Dead Assay Kit. E. Proliferation curves of FACS-sorted mouse Lin^−Sca1^+c-Kit^+CD48^− in the presence of indicated concentrations of AZA (left) and cell viability as assessed by % of Calcein AM positive cells after 48 h of cell culture (right). […] Statistics were calculated with Mann-Whitney test (*P<0.05; **P<0.01; ***P<0.001). F. Proliferation curves of FACS-sorted human Lin^−CD34^+CD38^− cells in the presence of indicated concentrations of AZA (left) and cell viability as assessed by % of Calcein AM positive cells after 48 h of cell culture (right). […]

Nc1ncn([C@@H]2O[C@H](CO)[C@@H](O)[C@H]2O)c(=O)n1 [AZA, 5-Azacytidine]
number of cells in culture (AZA 0.1, 0.5 and 1 μg/ml at baseline and 24 h, 48 h culture with SCF and TPO): reduced the number of cells in a dose dependent manner | cell viability by Calcein AM (AZA concentrations 0.1 μg/ml, 48 h): significant decrease in cell viability
